The test system of this test is Escherichia coli ATCC 25922. In words: ASTM E3160-18 antibacterial efficacy of treated fabric, with ASTM E3162-18 wash durability. The class given is cell-based. The following applies: cotton, use level 250-2000 ppm by row; for AM Activity after 25 Real Time Washes: after 25 real time washes (ASTM-E3162-18); for Initial AM Activity: before washing. The method, then: (Procedure 1A) Exhaust Method: Alpha-1,6-glucan ether compounds (e.g., as prepared in Materials/Methods) were exhaust-applied using Werner Mathis AG BFA-12 exhaust equipment. Individual formulation baths comprising desired concentrations of a glucan ether polymer in water were prepared. Each fabric sample (20 g) was loosely folded horizontally and placed into a test canister, followed by addition of 200 ml of a bath solution. The canisters were then closed and secured to the rotating wheel of the equipment. The rotation speed of the wheel was set to 35 rpm, switching from clockwise to counterclockwise modes at 1-minute intervals. In each case, the instrument, with the samples already loaded, would first heat up at a selected rate of heating until the target temperature was reached, maintaining the temperature for preset durations, before cooling down to initial temperature. Once the exhaustion process was complete, all the fabric samples were removed from the exhaust canisters and passed through padding equipment (Fanyuan Instruments, DW2010A) set to a pressure of 8.4 kg to squeeze out the excess water. Lastly, each sample was dried in a MATHIS lab dryer LTE for 5 minutes at 120° C.
(Procedure 1B) Padding Method: Alpha-1,6-glucan ether compounds (e.g., as prepared in Materials/Methods) were also applied to fabric samples via a padding process using a MATHIS HF or Fanyuan Instruments (DW2010A) padder. Dry fabric was submerged into a bath containing an aqueous solution of glucan ether compound at a desired concentration in water and passed through padder rollers to squeeze out (applied pressure equaled 3.1 bar) excess treatment solution. Each fabric sample was dried and cured in a MATHIS lab dryer LTE for 5 minutes at 120° C. Each glucan solution was prepared to account for water weight pick-up by each fabric type and their exhaust potential.
(Procedure 2A) ASTM E3160-18: In some cases, an alpha-1,6-glucan ether compound herein was considered to be antimicrobially efficient if it imparted a >3 log10 reduction of bacterial growth as tested by the American Society for Testing and Materials (ASTM) method E3160-18 (Quantitative Evaluation of the Antibacterial Properties of Porous Antibacterial Treated Articles, incorporated herein by reference) at a use level ≤5000 ppm. The ASTM E3160 method was performed as follows: The day before the test, a culture of Escherichia coli of the American Type Culture Collection (ATCC) 25922 was inoculated by transferring a single colony from tryptic soy agar (TSA), using a sterile loop, into a tryptic soy broth (TSB). On the day of the experiment (next day), each fabric sample (treated with an alpha-1,6-glucan ether herein or a control compound, e.g., prepared by Procedure 1A above) was cut into three 0.40-g swatches (about 1×1 inch). Each fabric swatch was placed into a 50-mL sterile specimen cup. On the same day, bacterial/working inoculum was prepared by diluting the overnight culture of E. coli into phosphate buffer supplemented with TSB (1:500) and 0.05% TRITON X-100 to obtain a bacterial concentration that was between 2.5×10^5 colony forming units (CFU)/mL and 1.0×10^6 CFU/mL, with a target concentration of 6×10^5 CFU/mL. All samples were inoculated by applying 0.2 mL of working inoculum in several aliquots directly onto the fabric surface, and were allowed to incubate for 24 hours at 37° C. Samples were neutralized with 10 mL Dey-Engley (D-E) neutralizing buffer and enumerated in triplicate in 96-well plates containing 180 μL TSB by transferring 20 μL of neutralized sample to the top well of the 96-well plates and serially diluting 20 μL down the plate.

As for `CCCCCCCCCCCC[N+](C)(C)C.[Cl-]` [Comparative 7, dodecyltrimethylammonium chloride], the “AM Activity after 25 Real Time Washes” value is less than 1 log10 log10 reduction and the “Initial AM Activity” value is listed as 5 log10 log10 reduction.
As for `CCCCCCCCCCCCCCCCCC[N+](C)(C)CCC[Si](O)(O)O.[Cl-]` [Comparative 3, 3-(trihydroxysilyl)propyldimethyl-octadecyl ammonium chloride], the “AM Activity after 25 Real Time Washes” value is less than 1 log10 log10 reduction and the “Initial AM Activity” value is 5 log10 log10 reduction.
In the case of `CCCCCCCCCCCC[N+](C)(C)CC(O)CCl.[Cl-]` (centres unmarked) [Comparative 6, 3-chloro-2-hydroxypropyl dodecyldimethylammonium chloride], the “AM Activity after 25 Real Time Washes” value is listed as less than 2 log10 log10 reduction and the “Initial AM Activity” value was 5 log10 log10 reduction.
For `CCCCCCCCCCCC(=O)N[C@@H](CCCNC(=N)N)C(=O)OCC` [Comparative 5, Lauroyl arginine ethyl ester], in that order: less than 1 log10 log10 reduction and 5 log10 log10 reduction.

The values above are taken from US20260150837A1, “GLUCAN DERIVATIVES FOR MICROBIAL CONTROL” (Nutrition & Biosciences USA 4, Inc., priority 2021, published 2026).
